Values joined by “and” are separate entries in the source; they are usually repeats but may differ in a detail not shown here. Equal entries are not always repeated.
Tests used:
[1] = Fluorescence titration, binding affinity for TO3-Biotin; conditions: ligand TO3-B (TO3-Biotin)
From the text: FIG. 2|RNA Mango I, II, III and IV core sequences and their properties. (a) Color coded alignment of RNA Mango I, II, III and IV. G residues in yellow are protected from DMS cleavage (data from panel d) when folded in the presence of fluorophore. Quadruplex stacks and their associated propeller sequences are numbered 1 through 4. The GAAA isolation motif of Mango I, together with two adenines essential for binding, are shown in green and red respectively. Purple shading represents a flanking stem region common for all four Mango aptamers. Schematic: A tertiary structure schematic of Mango I, showing tier 1, 2 and 3 of its quadruplex structure (T1, T2 and T3) and color-coded as in (a). […] Bottom: Top view of the Mango I core (PBD ID: 5V3F), showing the T3 tier of the quadruplex and relevant propeller residues, color coding matches the schematic and panel a. […] KD values are shown next to each titration. (c) Same as for panel b but using 20 nM TO3-Biotin. Data for panels b and c have been normalized such that Mango I has a maximum fluorescence of 1. Error bars are standard deviation of three replicates. (d) DMS chemical protection patterns for the four Mango aptamers. 3′ end-labelled RNA (terminal ^32pCp shown as a black asterisk) was subjected to DMS chemical modification followed by reduction by NaBH4 and aniline cleavage as described in the methods. […] Legend: T1—denatured T1 ladder; OH—partial alkaline hydrolysis ladder; (−) DMS—denatured reaction with ddH2O added in place of DMS; 80° C.
Fluorescence data was gathered using a Varian Cary Eclipse Spectrophotometer unless otherwise stated. […] Fluorescence was measured at the maximum excitation and emission wavelengths of each complex (FIG. 13).
Or to the following equation for TO3-Biotin and NMM experiments: F([RNA])=Fmax[RNA]/(KD+[RNA])+Funbound (Eq. 2) Fmax was determined using Eq. 1 or Eq. 2 as appropriate. Temperature Dependent Fluorescence and UV Melting Curves
(§1) Fluorescence readings were recorded using a Varian Cary Eclipse Spectrophotometer set to measure at the maximum excitation and emission wavelengths of the Mango II aptamer dye complex. Fluorescence titrations were performed in Mango selection buffer (WB: 140 mM KCl, 1 mM MgCl2, 10 mM NaH2PO4 pH 7.2, 0.05% Tween-20).

[2] = Fluorescence titration, binding affinity for TO1-PE; conditions: ligand TO1-PE
From the text: We determined the affinity and fluorescence enhancement of four compounds: TO1-OAc (TO1-acetate), TO1-ME (TO1-methylester), TO1-PA (TO1-propanylamide), TO1-PE (TO1-pentenoylester) (FIG. 42, Table 8 & 9). Binding affinity and fluorescence enhancement of TO1-OAc is drastically diminished, and nearly identical between the wild-type and A22U mutant. […] Further extension of the linker stabilizes the binding pocket by stacking on T3 but becomes sterically hindered by a bulky purine in position 22. The A22U mutation would limit steric clashes while preventing misfolding of the G-quadruplex core. Thus, the improved properties of the Mango-II A22U mutant may arise from improved packing of the linker of the fluorophore with an RNA with a homogeneous or predominant conformation.
as §1

[3] = Fluorescence lifetime measurements (TCSPC); type: physicochemical; conditions: for α1 (%): amplitude of τ1; for α2 (%): amplitude of τ2; for τi (ns), intensity-weighted average lifetime / τa (ns), amplitude-weighted average lifetime: calculated from the components; for τ1 (ns) / τ2 (ns): free TO1-Biotin or RNA bound to TO1-Biotin
Method: Fluorophore lifetime measurements were performed by using an in-house modified 2-photon fluorescence microscope based on a Zeiss LSM 510 unit capable of Time-Correlated Single-Photon Counting (TCSPC) measurements. A diode-pumped solid state laser (Millenia Prime, Spectra Physics, Newport, Calif.) was used to pump a Ti:Sapphire Tsunami oscillator (Model 3960C, Spectra Physics, Newport, Calif.), operating in femtosecond mode, at a repetition rate of 80 MHz, and tunable in the near infrared region. The output beam of the Ti:Sapphire laser was directed into an acousto-opto modulator (MT110/B50/A1.5 IR/S, AA Optoelectronic, France), controlled through the Zeiss LSM electronics and software, to attenuate the power before steering it into the LSM unit. The beam was reflected onto a 700/488 dichroic mirror and directed into the back aperture of a Plan Apochromat 63×, NA 1.4, oil immersion objective, and expanded to fill the back pupil. The fluorescence from the sample was collected from the same objective, intercepted by a 733LP dichroic mirror, sent toward the back port of the microscope, filtered through an ET700SP-2P filter (Chroma Technologies, Bellows Falls, Vt.) to remove residual scattering from the laser, and further passed through a 540/50 nm bandpass filter (Semrock, Rochester, N.Y.). The fluorescence is finally focused onto the photocathode of a H7422P-40 GaAsP photomultiplier detector (Hamamatsu, Japan). The large NA of the objective contributes to a certain degree of depolarization of the incoming excitation beam, as well as of the detected fluorescence. According to Fisz (J. Chem. Phys. A, 2007 and 2009), this would allow one to omit an analyzer (polarizer) in front of our detector, because magic angle conditions are achieved by using a 45° angle detection (i.e. unpolarized) configuration. The signal from the detector and the synchronization signal from the laser are directed into an SPC150 photon counting card (Becker & Hickl, Germany), controlled by the SPCM64 proprietary software from the manufacturer (Becker & Hickl, Germany). The data were collected with a 12.5 ns time window in TCSPC histogramming mode with 1024 channels, with a width of 12.2 ps each.
For the experiments the laser was tuned at 780 nm, and the power adjusted to 18 mW before the objective lens. RNA samples were diluted to a concentration of ˜3-5 μM in buffer. TO-1B was measured at a concentration of 50 μM due to low fluorescence signal of the compound, compared to the RNA-bound version. An 80 μl droplet was deposited onto a #1.5 coverslip, previously treated with BSA to avoid nonspecific binding of RNA to the glass, and covered to avoid evaporation. The excitation was focused ˜5 μm above the upper surface of the coverslip to reduce scatter and to avoid collecting signal from molecules immobilized on the glass surface. The beam was kept stationary by using the LSM controller to simply open the excitation shutter, and data were collected until the maximum count in the peak channel of the TCSPC histogram reached 10^4 photons. Experiments were repeated in triplicate. An instrument response function (IRF) was collected on every day of measurement by recording the second harmonic generation (SHG) signal from crushed urea crystals deposited onto a glass coverslip, in this case the bandpass filter before the detector was substituted with a 440 nm short pass filter to collect the 390 nm SHG. The data collected with the SPCM64 software were stored as *.sdt files for subsequent analysis.
Data were analyzed using the SPCImage software (Becker & Hickl, Germany). The fluorescence decay curves were fit using exponential functions of the form:
Where n is at most equal to 3 in our software. The data fitting routine uses a least-square algorithm where the exponential function is first reconvoluted with the measured IRF and then fit to the data. The shift of the IRF for each dataset, as well as a scatter contribution were included as free parameters during fitting. […]

Molecule | Kd [1] | Kd [2] [nM] | α1 (%) [3] [%] | α2 (%) [3] [%] | τi (ns), intensity-weighted average lifetime [3] [ns] | τa (ns), amplitude-weighted average lifetime ([3]; listed as Mango II wt) [ns] | τa (ns), amplitude-weighted average lifetime ([3]; listed as wild-type Mango-II) | τ1 (ns) ([3]; listed as Mango II wt) | τ2 (ns) ([3]; listed as Mango II wt) | τ1 (ns) ([3]; listed as wild-type Mango-II) | τ2 (ns) ([3]; listed as wild-type Mango-II) | τa (ns), amplitude-weighted average lifetime [3] [ns] | τa (ns), amplitude-weighted average lifetime ([3]; listed as A22U mutant) | τ1 (ns) [3] [ns] | τ2 (ns) [3] [ns] | τ1 (ns) ([3]; listed as A22U mutant) | τ2 (ns) ([3]; listed as A22U mutant)
Mango-II: minimal construct engineered from isolate R2-1; SEQ ID NO: 6902 GCGUACGAAGGAGAGGAGAGGAAGAGGAGAGUACGC (chemistry not given here) | 1.4 nM and ~1.4 nM | 0.37 ± 0.06 | 45 | 55 | 2.05 | 1.51 | 1.51 (±0.06) ns | 0.52 | 2.33 | 0.52 (±0.02) ns | 2.33 (±0.12) ns |  |  |  |  |  | 
Mango II - A22U: Mango-II point mutant; SEQ ID NO: 6903 / 6905 (nucleic acid, chemistry not given here) chain 1: GCGUACGAAGGAGAGGAGAGGUAGAGGAGAGUACGC chain 2: GGCACGUACGAAGGAGAGGAGAGGUAGAGGAGAGUACGUGC | 5 ± 2.8 nM | 1 ± 0.13 | 45 | 55 | 2.53 |  |  |  |  |  |  | 1.92 | 1.92 (±0.03) ns | 0.72 | 2.904 | 0.72 (±0.01) ns | 2.904 (±0.001) ns

— patent publication US11434490B2, “Fluorogen-binding RNA aptamers” (CENTRE NATIONAL DE LA RECHERCHE SCIENTIFIQUE, priority 2017, dated 2022)
